These results are taken from patent publication US20050154046A1, “Methods of treating an inflammatory-related disease” (priority 2004, published 2005).

Molecules are shown by their SMILES. “Also recorded” adds a separate entry of the source.

What all share (assay type): cell-based, human
Data set [1] deals with TNF-α. Put plainly: TNF-α secretion (ELISA) in LPS-stimulated THP-1 cells. Here is the method:
Methods: The cells were stimulated with or without […] of lipopolysaccharide (LPS, Sigma), and exposed for 24 hours to different concentrations of Meisoindigo (from 31.25 nM to 16,000 nM). Viability of cells was examined under microscope after trypan blue staining. Protein levels of IL-1β secreted into the culture media by the cells were then measured by ELISA and calculated from its standard curve using an assay Kit from R&D Systems according to instructions provided by the supplier. The method was established and validated by a good standard curve obtained. An example of the standard curve is shown in FIG. 2, panel A. The representative derivative Meisoindigo was used. The cell line and the procedure of ELISA to measure secretion of TNF-α were the same as described in Example 1, except the standard TNF-α protein was used to establish a standard curve for the calculation of the protein secreted in the medium by the cells (LPS-stimulated or non-stimulated cells in the presence or absence of Meisoindigo).
Background: An ELISA detects its analyte on a solid surface through an enzyme-linked reagent.

For data set [2], the system named is THP-1 cells. Put plainly: Viability of THP-1 cells by trypan blue staining. Conditions: up to 8 μM. Here is the method:
Methods: The cells were stimulated with or without […] of lipopolysaccharide (LPS, Sigma), and exposed for 24 hours to different concentrations of Meisoindigo (from 31.25 nM to 16,000 nM). Viability of cells was examined under microscope after trypan blue staining. Protein levels of IL-1β secreted into the culture media by the cells were then measured by ELISA and calculated from its standard curve using an assay Kit from R&D Systems according to instructions provided by the supplier. The method was established and validated by a good standard curve obtained.

Data set [3] concerns TNF-α mRNA. The data set can be described thus: TNF-α transcription (real time PCR) in LPS-stimulated THP-1 cells. To be noted: 4 μM, 24 h. The protocol: The effect of Meisoindigo on the transcription of TNF-α (RNA levels) was determined by a technique of real time PCR using the same procedures described in Example 2, except the specific primers for TNF-α were used as follows: 5′-[…], and 5′[…]. Total RNA was extracted using a Qiagen Rneasy minit kit, and the HPRT gene was used as internal control.
Human monocytic THP-1 cells grown exponentially were exposed to […] of LPS, 4 μM of Meisoindigo, or 1 μg/ml of LPS plus 4 μM of Meisoindigo for 24 hours. The cells were then harvested, washed and total RNA extracted for real time PCR assay as described in Example 2.
Background: Real-time PCR tracks product formation cycle by cycle.

In the case of `CN1C(=O)/C(=C2/C(=O)Nc3ccccc32)c2ccccc21` [Meisoindigo], in data set [1] (2.0 μM, 24 h), the “reduction of TNF-α secretion” value is recorded as “Approximately 50%”. Besides, in data set [1] (16 μM), the “inhibition of TNF-α secretion” value is “complete inhibition”. Further, the “effect on TNF-α secretion over the concentration series” value in data set [1] (0.031 to 16 μM, 24 h) is reported as “effectively inhibited; also recorded: concentration-dependent inhibition”. The “TNF-α (Inhibition), Percentage of Maximal Response Without Cytotoxicity” value in data set [1] (LPS-stimulated THP-1 cells, LPS alone 100.00) came out at 49.20 ± 3.37%. In addition, the “further reduction of TNF-α secretion on increasing the concentration” value in data set [1] (up to 8 μM) is on record as “did not cause further reduction”. For the same molecule, in data set [2], the cell deaths result was “no cell deaths were observed”. In data set [3], the “effect on TNF-α mRNA levels / transcription” value is “No effect”.
